{
  "source": "patent US8741931B2",
  "about": "“Kinase inhibitors” (priority 2007, dated 2014)",
  "data": [
    {"target": "PKC delta kinase (Homo sapiens, UniProt Q05655)", "sequence (Q05655 whole entry)": "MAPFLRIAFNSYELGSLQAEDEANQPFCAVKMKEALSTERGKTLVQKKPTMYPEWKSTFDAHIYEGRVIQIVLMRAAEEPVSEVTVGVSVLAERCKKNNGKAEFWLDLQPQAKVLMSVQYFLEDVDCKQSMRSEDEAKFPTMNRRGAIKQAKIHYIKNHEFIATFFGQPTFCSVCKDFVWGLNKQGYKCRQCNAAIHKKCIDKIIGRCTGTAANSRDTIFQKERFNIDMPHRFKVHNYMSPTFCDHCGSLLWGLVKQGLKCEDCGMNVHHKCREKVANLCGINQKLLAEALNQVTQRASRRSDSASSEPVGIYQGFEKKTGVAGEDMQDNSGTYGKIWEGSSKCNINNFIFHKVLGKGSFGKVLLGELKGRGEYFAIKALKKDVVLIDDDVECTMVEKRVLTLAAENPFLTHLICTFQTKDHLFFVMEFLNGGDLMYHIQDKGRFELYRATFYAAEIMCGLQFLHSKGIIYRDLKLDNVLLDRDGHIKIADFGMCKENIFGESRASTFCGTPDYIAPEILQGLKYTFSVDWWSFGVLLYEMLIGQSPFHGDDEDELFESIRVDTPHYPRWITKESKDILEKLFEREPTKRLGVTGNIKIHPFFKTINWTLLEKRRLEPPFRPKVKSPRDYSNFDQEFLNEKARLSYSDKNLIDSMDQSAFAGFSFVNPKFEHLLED", "test": "PKC Delta (coupled enzyme assay)", "type": "biochemical", "conditions": "not given", "protocol": "(§1) An assay buffer solution was prepared which consisted of 100 mM HEPES (pH 7.5), 10 mM MgCl2, 25 mM NaCl, 0.1 mM EDTA and 0.01% Brij. […] To 16 μL of this enzyme buffer, in a 384 well plate, was added 1 μL of VRT stock solution in DMSO. The mixture was allowed to equilibrate for 10 mins at 30° C. […] Ki values were calculated from initial rate data by non-linear regression using the Prism software package (Prism 4.0a, Graphpad Software, San Diego, Calif.).", "units": {"Ki": "nM"}, "values": [
      {"smiles": "CN1CCCN(c2cccc(C(=O)c3cccnc3N)n2)CC1", "note": "[compound 82]", "Ki": "500 to 2800"}
    ]},
    {"target": "PKC delta kinase (Homo sapiens, UniProt Q05655)", "test": "PKC Delta (coupled enzyme assay)", "type": "biochemical", "conditions": "150 μM ATP, 46 nM PKC delta; read-out: Ki PKC delta", "protocol": "as §1", "units": {"Ki": "nM"}, "values": [
      {"smiles": "CC(C)C(O)C1CN(c2ccc(C(F)(F)F)c(C(=O)c3cccnc3N)n2)CCN1", "note": "(stereo not shown) [compound 461]", "Ki": "50 to 500"},
      {"smiles": "CCC(N)(CNc1ccc(C(F)(F)F)c(C(=O)c2cccnc2N)n1)c1ccccc1", "note": "(stereo not shown) [compound 444]", "Ki": "50 to 500"},
      {"smiles": "COCC1CN(c2ccc(C(F)(F)F)c(C(=O)c3cccnc3N)n2)CCN1", "note": "(stereo not shown) [compound 455]", "Ki": "500 to 2800"},
      {"smiles": "Cc1ccsc1C(=O)N1CCCN(c2cccc(C(=O)c3cccnc3N)n2)CC1", "note": "[compound 27]", "Ki": "500 to 2800"},
      {"smiles": "Nc1ncc(Cl)cc1C(=O)c1nc(N2CCNC(c3ccccc3)C2)ccc1C(F)(F)F", "note": "(stereo not shown) [compound 496]", "Ki": "50 to 500"},
      {"smiles": "Nc1ncccc1C(=O)c1nc(N2CC3CCC(C2)N3)ccc1C(F)(F)F", "note": "[compound 466]", "Ki": "50 to 500"},
      {"smiles": "Nc1ncc(Br)cc1C(=O)c1cccc(N2CCC(N3CCCC3)CC2)n1", "note": "[compound 121]", "Ki": "50 to 500"},
      {"smiles": "CC(C)C[C@H]1CN(c2ccc(C(F)(F)F)c(C(=O)c3cc(Cl)cnc3N)n2)CCN1", "note": "[compound 480]", "Ki": "50 to 500"},
      {"smiles": "CCCC1CN(c2ccc(C(F)(F)F)c(C(=O)c3cccnc3N)n2)CCN1", "note": "(stereo not shown) [compound 434]", "Ki": "50 to 500"},
      {"smiles": "CCC(N)(COc1ccc(C(F)(F)F)c(C(=O)c2cccnc2N)n1)c1ccccc1", "note": "(stereo not shown) [compound 440]", "Ki": "50 to 500"},
      {"smiles": "Nc1ncccc1C(=O)c1cccc(N2CCCN(CC3CC3)CC2)n1", "note": "[compound 117]", "Ki": "50 to 500"},
      {"smiles": "CCC(=O)N1CCCN(c2cccc(C(=O)c3cccnc3N)n2)CC1", "note": "[compound 20]", "Ki": "500 to 2800"},
      {"smiles": "C[C@H]1CN(c2ccc(C(F)(F)F)c(C(=O)c3cccnc3N)n2)CCN1", "note": "[compound 478]", "Ki": "50 to 500"},
      {"smiles": "Nc1ncc(Br)cc1C(=O)c1cccc(N2CCCN(CC3CC3)CC2)n1", "note": "[compound 113]", "Ki": "50 to 500"},
      {"smiles": "Nc1ncccc1C(=O)c1nc(N2CCN[C@@H](c3ccccc3)C2)ccc1C(F)(F)F", "note": "[compound 448]", "Ki": "50 to 500"},
      {"smiles": "Nc1ncccc1C(=O)c1nc(OCCC(N)c2ccccc2)ccc1C(F)(F)F", "note": "(stereo not shown) [compound 427]", "Ki": "50 to 500"},
      {"smiles": "Cc1cnc(N)c(C(=O)c2nc(N3CCN[C@@H](CC(C)C)C3)ccc2C(F)(F)F)c1", "note": "[compound 499]", "Ki": "50 to 500"},
      {"smiles": "CCCC1CN(c2ccc(C(F)(F)F)c(C(=O)c3cccnc3N)n2)CCCN1", "note": "(stereo not shown) [compound 437]", "Ki": "50 to 500"},
      {"smiles": "Nc1ncccc1C(=O)c1nc(N2CCNC(CC3CC3)C2)ccc1C(F)(F)F", "note": "(stereo not shown) [compound 441]", "Ki": "50 to 500"},
      {"smiles": "CC[C@@](CN)(CNc1ccc(C(F)(F)F)c(C(=O)c2cccnc2N)n1)c1ccccc1", "note": "[compound 462]", "Ki": "50 to 500"},
      {"smiles": "CC(C)N1CCCN(c2cccc(C(=O)c3cccnc3N)n2)CC1", "note": "[compound 116]", "Ki": "50 to 500"},
      {"smiles": "CC(C)C(=O)N1CCCN(c2cccc(C(=O)c3cc(Br)cnc3N)n2)CC1", "note": "[compound 71]", "Ki": "500 to 2800"},
      {"smiles": "Nc1ncc(Br)cc1C(=O)c1cccc(N2CCCN(C(=O)Cc3cccc(O)c3)CC2)n1", "note": "[compound 70]", "Ki": "500 to 2800"},
      {"smiles": "CC(C)C[C@H]1CN(c2ccc(C(F)(F)F)c(C(=O)c3cccnc3N)n2)CC2(CCC2)N1", "note": "[compound 471]", "Ki": "50 to 500"},
      {"smiles": "Nc1ncccc1C(=O)c1nc(N2CCNC(C3CC3)C2)ccc1C(F)(F)F", "note": "(stereo not shown) [compound 442]", "Ki": "50 to 500"},
      {"smiles": "Cc1ccsc1CN1CCCN(c2cccc(C(=O)c3cccnc3N)n2)CC1", "note": "[compound 106]", "Ki": "500 to 2800"},
      {"smiles": "Nc1ncccc1C(=O)c1cccc(N2CCCN(C(=O)CC(F)(F)F)CC2)n1", "note": "[compound 23]", "Ki": "50 to 500"},
      {"smiles": "CC(C)(C)CCN1CCCN(c2cccc(C(=O)c3cc(Br)cnc3N)n2)CC1", "note": "[compound 76]", "Ki": "500 to 2800"},
      {"smiles": "Nc1ncccc1C(=O)c1cccc(N2CCCN(CCc3ccccc3)CC2)n1", "note": "[compound 120]", "Ki": "500 to 2800"},
      {"smiles": "CCc1cnc(N)c(C(=O)c2nc(N3CCN[C@@H](CC(C)C)C3)ccc2C(F)(F)F)c1", "note": "[compound 486]", "Ki": "50 to 500"},
      {"smiles": "Cc1sc(N2CCN[C@@H](CC(C)C)C2)nc1C(=O)c1cccnc1N", "note": "[compound 505]", "Ki": "50 to 500"},
      {"smiles": "CCc1cnc(N)c(C(=O)c2cccc(N3CCCNCC3)n2)c1", "note": "[compound 105]", "Ki": "50 to 500"},
      {"smiles": "Nc1ncc(Br)cc1C(=O)c1nc(N2CCC(N)CC2)cs1", "note": "[compound 134]", "Ki": "50 to 500"}
    ]}
  ]
}
